Experimental data from PMC4317228 (Pharmacology Research & Perspectives, 2014).

Columns and labels:
[1] = biological target: T1, human 5HT2A receptor (h5HT2A) (Homo sapiens, UniProt P28223); assay: [3H]ketanserin displacement
T1 construct: gene HTR2A

[2] = biological target: T2, human metabotropic glutamate type 2 receptor (hmGlu2) (Homo sapiens, UniProt Q14416); assay: [3H]DCG-IV saturation binding, hmGlu2 CHO membranes
T2 construct: gene GRM2; full-length receptor, stably expressed in CHO cells (membranes)
T2 sequence (Q14416 19-872): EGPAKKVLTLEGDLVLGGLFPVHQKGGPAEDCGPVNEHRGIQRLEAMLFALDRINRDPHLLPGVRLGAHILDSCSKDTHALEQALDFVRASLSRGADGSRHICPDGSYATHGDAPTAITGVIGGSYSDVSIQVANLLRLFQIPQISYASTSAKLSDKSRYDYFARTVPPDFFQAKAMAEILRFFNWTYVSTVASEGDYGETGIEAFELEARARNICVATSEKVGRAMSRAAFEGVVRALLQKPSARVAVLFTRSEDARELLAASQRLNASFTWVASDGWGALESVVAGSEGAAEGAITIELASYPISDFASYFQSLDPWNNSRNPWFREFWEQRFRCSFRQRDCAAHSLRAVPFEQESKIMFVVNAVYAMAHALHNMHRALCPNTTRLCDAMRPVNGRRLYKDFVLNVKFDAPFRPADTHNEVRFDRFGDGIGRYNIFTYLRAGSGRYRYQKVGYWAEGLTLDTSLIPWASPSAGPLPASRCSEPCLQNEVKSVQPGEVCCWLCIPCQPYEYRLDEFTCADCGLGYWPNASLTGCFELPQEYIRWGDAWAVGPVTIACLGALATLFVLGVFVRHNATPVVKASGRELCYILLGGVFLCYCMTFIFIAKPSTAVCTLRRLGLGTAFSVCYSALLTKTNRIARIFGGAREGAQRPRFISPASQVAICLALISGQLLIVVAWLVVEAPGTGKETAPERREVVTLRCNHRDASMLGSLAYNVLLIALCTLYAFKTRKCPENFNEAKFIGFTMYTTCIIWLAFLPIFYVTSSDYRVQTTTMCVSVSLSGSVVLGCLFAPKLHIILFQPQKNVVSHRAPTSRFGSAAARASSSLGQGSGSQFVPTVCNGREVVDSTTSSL

T1 sequence (P28223 whole entry): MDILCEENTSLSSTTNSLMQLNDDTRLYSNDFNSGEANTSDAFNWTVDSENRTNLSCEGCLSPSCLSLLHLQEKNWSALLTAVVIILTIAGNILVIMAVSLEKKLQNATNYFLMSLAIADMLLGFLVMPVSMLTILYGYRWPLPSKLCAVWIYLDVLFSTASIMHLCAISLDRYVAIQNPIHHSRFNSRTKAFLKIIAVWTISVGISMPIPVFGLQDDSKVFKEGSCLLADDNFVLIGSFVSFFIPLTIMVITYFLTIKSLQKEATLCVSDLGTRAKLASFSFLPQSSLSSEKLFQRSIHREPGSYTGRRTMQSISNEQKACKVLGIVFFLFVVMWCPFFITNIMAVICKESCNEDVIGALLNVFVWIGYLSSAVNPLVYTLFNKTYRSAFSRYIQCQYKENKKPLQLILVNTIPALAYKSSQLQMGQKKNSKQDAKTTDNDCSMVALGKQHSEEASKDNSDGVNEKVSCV

IC50 [1] [nM] | Kd [2] [nM] | SMILES
102 | – | CCCCn1ccc(N2CCC(c3ccc(O)cc3)CC2)c(Cl)c1=O [JNJ-42159052]
– | 200 | N[C@H](C(=O)O)C1[C@@H](C(=O)O)[C@@H]1C(=O)O (some centres unmarked) [DCG-IV]
